According to PubChem BioAssay (NCI):
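Protocol summary: plate cells (96-well), add compound at 5 concentrations, incubate 48 h, interpolate endpoints linearly. TGI marks complete inhibition of growth.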

Columns and labels:
Assay in all cases: DTP human tumour cell line panel, 48 h
NCI-H226 lung = tested on: NCI-H226 lung
SW-620 colon = tested on: SW-620 colon
MDA-MB-231 breast = tested on: MDA-MB-231 breast
MDA-MB-435 = tested on: MDA-MB-435
OVCAR-3 ovarian = tested on: OVCAR-3 ovarian
A498 renal = tested on: A498 renal
TK-10 renal = tested on: TK-10 renal
SK-OV-3 ovarian = tested on: SK-OV-3 ovarian
MOLT-4 leukemia = tested on: MOLT-4 leukemia
SNB-19 CNS = tested on: SNB-19 CNS
ACHN renal = tested on: ACHN renal
EKVX NSCLC = tested on: EKVX NSCLC
CAKI-1 renal = tested on: CAKI-1 renal
NCI-H23 lung = tested on: NCI-H23 lung
A549 NSCLC = tested on: A549 NSCLC
UACC-257 melanoma = tested on: UACC-257 melanoma
COLO 205 colon = tested on: COLO 205 colon
MDA-N = tested on: MDA-N
HCT-15 colon = tested on: HCT-15 colon
SF-539 CNS = tested on: SF-539 CNS
MCF7 breast = tested on: MCF7 breast
MALME-3M melanoma = tested on: MALME-3M melanoma
HCT-116 colon = tested on: HCT-116 colon
SK-MEL-5 melanoma = tested on: SK-MEL-5 melanoma
IGROV1 ovarian = tested on: IGROV1 ovarian
SK-MEL-2 melanoma = tested on: SK-MEL-2 melanoma
RXF 393 renal = tested on: RXF 393 renal
T-47D breast = tested on: T-47D breast
OVCAR-4 ovarian = tested on: OVCAR-4 ovarian
UO-31 renal = tested on: UO-31 renal
OVCAR-5 ovarian = tested on: OVCAR-5 ovarian
786-0 renal = tested on: 786-0 renal
U251 CNS = tested on: U251 CNS
KM12 colon = tested on: KM12 colon
NCI-H460 lung = tested on: NCI-H460 lung
SK-MEL-28 melanoma = tested on: SK-MEL-28 melanoma
LOX IMVI melanoma = tested on: LOX IMVI melanoma
SF-295 CNS = tested on: SF-295 CNS
K-562 leukemia = tested on: K-562 leukemia
M14 melanoma = tested on: M14 melanoma
NCI-H522 lung = tested on: NCI-H522 lung
SN12C renal = tested on: SN12C renal
NCI/ADR-RES ovarian = tested on: NCI/ADR-RES ovarian
PC-3 prostate = tested on: PC-3 prostate
HCC-2998 colon = tested on: HCC-2998 colon
RPMI-8226 leukemia = tested on: RPMI-8226 leukemia
BT-549 breast = tested on: BT-549 breast
SNB-75 CNS = tested on: SNB-75 CNS
HOP-62 NSCLC = tested on: HOP-62 NSCLC
HOP-92 NSCLC = tested on: HOP-92 NSCLC
SF-268 CNS = tested on: SF-268 CNS
HS 578T breast = tested on: HS 578T breast
UACC-62 melanoma = tested on: UACC-62 melanoma
HT29 colon = tested on: HT29 colon
HL-60(TB) leukemia = tested on: HL-60(TB) leukemia
DU-145 prostate = tested on: DU-145 prostate
OVCAR-8 ovarian = tested on: OVCAR-8 ovarian
CCRF-CEM leukemia = tested on: CCRF-CEM leukemia

CN(C)S(=O)(=O)n1cnc(CO)c1
TGI (NCI-H226 lung): > 100 µM
TGI (SW-620 colon): > 100 µM
TGI (MDA-MB-231 breast): > 100 µM
TGI (MDA-MB-435): > 100 µM
TGI (OVCAR-3 ovarian): > 100 µM
TGI (A498 renal): > 100 µM
TGI (TK-10 renal): > 100 µM
TGI (SK-OV-3 ovarian): > 100 µM
TGI (MOLT-4 leukemia): > 100 µM
TGI (SNB-19 CNS): > 100 µM
TGI (ACHN renal): > 100 µM
TGI (EKVX NSCLC): > 100 µM
TGI (CAKI-1 renal): > 100 µM
TGI (NCI-H23 lung): > 100 µM
TGI (A549 NSCLC): > 100 µM
TGI (UACC-257 melanoma): > 100 µM
TGI (COLO 205 colon): > 100 µM
TGI (MDA-N): > 100 µM
TGI (HCT-15 colon): > 100 µM
TGI (SF-539 CNS): > 100 µM
TGI (MCF7 breast): > 100 µM
TGI (MALME-3M melanoma): > 100 µM
TGI (HCT-116 colon): > 100 µM
TGI (SK-MEL-5 melanoma): > 100 µM
TGI (IGROV1 ovarian): > 100 µM
TGI (SK-MEL-2 melanoma): > 100 µM
TGI (RXF 393 renal): > 100 µM
TGI (T-47D breast): > 100 µM
TGI (OVCAR-4 ovarian): > 100 µM
TGI (UO-31 renal): > 100 µM
TGI (OVCAR-5 ovarian): > 100 µM
TGI (786-0 renal): > 100 µM
TGI (U251 CNS): > 100 µM
TGI (KM12 colon): > 100 µM
TGI (NCI-H460 lung): > 100 µM
TGI (SK-MEL-28 melanoma): > 100 µM
TGI (LOX IMVI melanoma): > 100 µM
TGI (SF-295 CNS): > 100 µM
TGI (K-562 leukemia): > 100 µM
TGI (M14 melanoma): > 100 µM
TGI (NCI-H522 lung): > 100 µM
TGI (SN12C renal): > 100 µM
TGI (NCI/ADR-RES ovarian): > 100 µM
TGI (PC-3 prostate): > 100 µM
TGI (HCC-2998 colon): > 100 µM
TGI (RPMI-8226 leukemia): > 100 µM
TGI (BT-549 breast): > 100 µM
TGI (SNB-75 CNS): > 100 µM
TGI (HOP-62 NSCLC): > 100 µM
TGI (HOP-92 NSCLC): > 100 µM
TGI (SF-268 CNS): > 100 µM

[O-][N+]1=NC(c2ccccc2)=C1c1ccccc1
TGI (NCI-H226 lung): > 50 µM
TGI (SW-620 colon): > 50 µM
TGI (HS 578T breast): > 50 µM
TGI (MDA-MB-231 breast): > 50 µM
TGI (MDA-MB-435): > 50 µM
TGI (OVCAR-3 ovarian): > 50 µM
TGI (A498 renal): > 50 µM
TGI (TK-10 renal): > 50 µM
TGI (SK-OV-3 ovarian): > 50 µM
TGI (MOLT-4 leukemia): > 50 µM
TGI (SNB-19 CNS): > 50 µM
TGI (UACC-62 melanoma): > 50 µM
TGI (ACHN renal): > 50 µM
TGI (HT29 colon): > 50 µM
TGI (EKVX NSCLC): > 50 µM
TGI (CAKI-1 renal): > 50 µM
TGI (NCI-H23 lung): > 50 µM
TGI (A549 NSCLC): > 50 µM
TGI (UACC-257 melanoma): > 50 µM
TGI (HL-60(TB) leukemia): > 50 µM
TGI (COLO 205 colon): > 50 µM
TGI (MDA-N): > 50 µM
TGI (HCT-15 colon): > 50 µM
TGI (SF-539 CNS): > 50 µM
TGI (MCF7 breast): > 50 µM
TGI (MALME-3M melanoma): > 50 µM
TGI (HCT-116 colon): > 50 µM
TGI (SK-MEL-5 melanoma): > 50 µM
TGI (DU-145 prostate): > 50 µM
TGI (IGROV1 ovarian): > 50 µM
TGI (OVCAR-8 ovarian): > 50 µM
TGI (SK-MEL-2 melanoma): > 50 µM
TGI (RXF 393 renal): > 50 µM
TGI (OVCAR-4 ovarian): > 50 µM
TGI (UO-31 renal): > 50 µM
TGI (OVCAR-5 ovarian): > 50 µM
TGI (786-0 renal): > 50 µM
TGI (U251 CNS): > 50 µM
TGI (KM12 colon): > 50 µM
TGI (NCI-H460 lung): > 50 µM
TGI (SK-MEL-28 melanoma): > 50 µM
TGI (LOX IMVI melanoma): > 50 µM
TGI (SF-295 CNS): > 50 µM
TGI (K-562 leukemia): > 50 µM
TGI (M14 melanoma): > 50 µM
TGI (NCI-H522 lung): > 50 µM
TGI (SN12C renal): > 50 µM
TGI (NCI/ADR-RES ovarian): > 50 µM
TGI (PC-3 prostate): > 50 µM
TGI (RPMI-8226 leukemia): > 50 µM
TGI (SNB-75 CNS): > 50 µM
TGI (HOP-62 NSCLC): > 50 µM
TGI (CCRF-CEM leukemia): > 50 µM
TGI (HOP-92 NSCLC): > 50 µM
TGI (SF-268 CNS): > 50 µM
